Measurements reported in ChEMBL document CHEMBL3044763, “Inhibitory Activities of Rhodanine Derivatives on Plant Growth” (Biosci Biotechnol Biochem, 1996).

Assays:
[1] = Toxicity in Mus musculus ddY (mouse) assessed as mortality at 300 mg/kg, ip after 4 days; type: organism-based; set-up: dose 300 mg/kg, route intraperitoneal; settings: in vivo
[2] = Toxicity in Mus musculus ddY (mouse) assessed as mortality at 275 mg/kg, ip after 5 days; type: organism-based; set-up: dose 275 mg/kg, route intraperitoneal; settings: in vivo
[3] = Toxicity in Mus musculus ddY (mouse) assessed as mortality at 275 mg/kg, ip after 2 days; type: organism-based; set-up: dose 275 mg/kg, route intraperitoneal; settings: in vivo
[4] = system: Brassica rapa subsp. oleifera; experiment: Growth inhibition of Brassica rapa subsp. oleifera assessed as chlorophyll b level at 1 x 10^-4 M after 7 days; type: functional; set-up: scale not given: the % may be the effect or the level left
[5] = Toxicity in Mus musculus ddY (mouse) assessed as mortality at 275 mg/kg, ip after 4 days; type: organism-based; set-up: dose 275 mg/kg, route intraperitoneal; settings: in vivo
[6] = Toxicity in Mus musculus ddY (mouse) assessed as mortality at 200 mg/kg, ip after 6 days; type: organism-based; set-up: dose 200 mg/kg, route intraperitoneal; settings: in vivo
[7] = Toxicity in Mus musculus ddY (mouse) assessed as mortality at 250 mg/kg, ip after 5 days; type: organism-based; set-up: dose 250 mg/kg, route intraperitoneal; settings: in vivo
[8] = system: Brassica rapa subsp. oleifera; experiment: Growth inhibition of Brassica rapa subsp. oleifera assessed as total chlorophyll level at 5 x 10^-5 M after 7 days; type: functional; set-up: scale not given: the % may be the effect or the level left
[9] = Toxicity in Mus musculus ddY (mouse) assessed as mortality at 325 mg/kg, ip after 5 days; type: organism-based; set-up: dose 325 mg/kg, route intraperitoneal; settings: in vivo
[10] = Toxicity in Mus musculus ddY (mouse) assessed as mortality at 250 mg/kg, ip after 3 days; type: organism-based; set-up: dose 250 mg/kg, route intraperitoneal; settings: in vivo
[11] = Toxicity in Mus musculus ddY (mouse) assessed as mortality at 225 mg/kg, ip after 7 days; type: organism-based; set-up: dose 225 mg/kg, route intraperitoneal; settings: in vivo
[12] = Toxicity in Mus musculus ddY (mouse) assessed as mortality at 300 mg/kg, ip after 7 days; type: organism-based; set-up: dose 300 mg/kg, route intraperitoneal; settings: in vivo
[13] = Toxicity in Mus musculus ddY (mouse) assessed as mortality at 325 mg/kg, ip after 4 days; type: organism-based; set-up: dose 325 mg/kg, route intraperitoneal; settings: in vivo
[14] = system: Brassica rapa subsp. oleifera; experiment: Growth inhibition of Brassica rapa subsp. oleifera assessed as root growth at 5 x 10^-5 M after 7 days; type: functional
[15] = Toxicity in Mus musculus ddY (mouse) assessed as mortality at 200 mg/kg, ip after 1 day; type: organism-based; set-up: dose 200 mg/kg, route intraperitoneal; settings: in vivo
[16] = Toxicity in Mus musculus ddY (mouse) assessed as mortality at 250 mg/kg, ip after 7 days; type: organism-based; set-up: dose 250 mg/kg, route intraperitoneal; settings: in vivo
[17] = Toxicity in Mus musculus ddY (mouse) assessed as mortality at 300 mg/kg, ip after 1 day; type: organism-based; set-up: dose 300 mg/kg, route intraperitoneal; settings: in vivo
[18] = system: Brassica rapa subsp. oleifera; experiment: Growth inhibition of Brassica rapa subsp. oleifera assessed as chlorophyll a level at 1 x 10^-4 M after 7 days; type: functional; set-up: scale not given: the % may be the effect or the level left
[19] = Toxicity in Mus musculus ddY (mouse) assessed as mortality at 275 mg/kg, ip after 3 days; type: organism-based; set-up: dose 275 mg/kg, route intraperitoneal; settings: in vivo
[20] = Toxicity in Mus musculus ddY (mouse) assessed as mortality at 250 mg/kg, ip after 4 days; type: organism-based; set-up: dose 250 mg/kg, route intraperitoneal; settings: in vivo
[21] = Toxicity in Mus musculus ddY (mouse) assessed as mortality at 300 mg/kg, ip after 2 days; type: organism-based; set-up: dose 300 mg/kg, route intraperitoneal; settings: in vivo
[22] = Toxicity in Mus musculus ddY (mouse) assessed as mortality at 325 mg/kg, ip after 1 day; type: organism-based; set-up: dose 325 mg/kg, route intraperitoneal; settings: in vivo
[23] = system: Brassica rapa subsp. oleifera; experiment: Growth inhibition of Brassica rapa subsp. oleifera assessed as chlorophyll b level at 5 x 10^-5 M after 7 days; type: functional; set-up: scale not given: the % may be the effect or the level left
[24] = Toxicity in Mus musculus ddY (mouse) assessed as mortality at 300 mg/kg, ip after 3 days; type: organism-based; set-up: dose 300 mg/kg, route intraperitoneal; settings: in vivo
[25] = Toxicity in Mus musculus ddY (mouse) assessed as mortality at 200 mg/kg, ip after 7 days; type: organism-based; set-up: dose 200 mg/kg, route intraperitoneal; settings: in vivo
[26] = Toxicity in Mus musculus ddY (mouse) assessed as mortality at 275 mg/kg, ip after 7 days; type: organism-based; set-up: dose 275 mg/kg, route intraperitoneal; settings: in vivo
[27] = Toxicity in Mus musculus ddY (mouse) assessed as mortality at 200 mg/kg, ip after 3 days; type: organism-based; set-up: dose 200 mg/kg, route intraperitoneal; settings: in vivo
[28] = Toxicity in Mus musculus ddY (mouse) assessed as mortality at 250 mg/kg, ip after 1 day; type: organism-based; set-up: dose 250 mg/kg, route intraperitoneal; settings: in vivo
[29] = Toxicity in Mus musculus ddY (mouse) assessed as mortality at 250 mg/kg, ip after 2 days; type: organism-based; set-up: dose 250 mg/kg, route intraperitoneal; settings: in vivo
[30] = system: Brassica rapa subsp. oleifera; experiment: Growth inhibition of Brassica rapa subsp. oleifera assessed as chlorophyll b level at 3 x 10^-4 M after 7 days; type: functional; set-up: scale not given: the % may be the effect or the level left
[31] = Toxicity in Mus musculus ddY (mouse) assessed as mortality at 225 mg/kg, ip after 5 days; type: organism-based; set-up: dose 225 mg/kg, route intraperitoneal; settings: in vivo
[32] = Toxicity in Mus musculus ddY (mouse) assessed as mortality at 225 mg/kg, ip after 2 days; type: organism-based; set-up: dose 225 mg/kg, route intraperitoneal; settings: in vivo
[33] = system: Brassica rapa subsp. oleifera; experiment: Growth inhibition of Brassica rapa subsp. oleifera assessed as chlorophyll a level at 3 x 10^-5 M after 7 days; type: functional; set-up: scale not given: the % may be the effect or the level left
[34] = Toxicity in Mus musculus ddY (mouse) assessed as mortality at 225 mg/kg, ip after 6 days; type: organism-based; set-up: dose 225 mg/kg, route intraperitoneal; settings: in vivo
[35] = Toxicity in Mus musculus ddY (mouse) assessed as mortality at 250 mg/kg, ip after 6 days; type: organism-based; set-up: dose 250 mg/kg, route intraperitoneal; settings: in vivo
[36] = Toxicity in Mus musculus ddY (mouse) assessed as mortality at 325 mg/kg, ip after 6 days; type: organism-based; set-up: dose 325 mg/kg, route intraperitoneal; settings: in vivo
[37] = Toxicity in Mus musculus ddY (mouse) assessed as mortality at 275 mg/kg, ip after 1 day; type: organism-based; set-up: dose 275 mg/kg, route intraperitoneal; settings: in vivo
[38] = system: Brassica rapa subsp. oleifera; experiment: Growth inhibition of Brassica rapa subsp. oleifera assessed as root growth at 3 x 10^-4 M after 7 days; type: functional
[39] = Toxicity in Mus musculus ddY (mouse) assessed as mortality at 325 mg/kg, ip after 2 days; type: organism-based; set-up: dose 325 mg/kg, route intraperitoneal; settings: in vivo
[40] = system: Brassica rapa subsp. oleifera; experiment: Growth inhibition of Brassica rapa subsp. oleifera assessed as chlorophyll a level at 3 x 10^-4 M after 7 days; type: functional; set-up: scale not given: the % may be the effect or the level left
[41] = system: Brassica rapa subsp. oleifera; experiment: Growth inhibition of Brassica rapa subsp. oleifera assessed as chlorophyll b level at 3 x 10^-5 M after 7 days; type: functional; set-up: scale not given: the % may be the effect or the level left
[42] = Toxicity in Mus musculus ddY (mouse) assessed as mortality at 300 mg/kg, ip after 5 days; type: organism-based; set-up: dose 300 mg/kg, route intraperitoneal; settings: in vivo
[43] = system: Brassica rapa subsp. oleifera; experiment: Growth inhibition of Brassica rapa subsp. oleifera assessed as chlorophyll a level at 5 x 10^-5 M after 7 days; type: functional; set-up: scale not given: the % may be the effect or the level left
[44] = Toxicity in Mus musculus ddY (mouse) assessed as mortality at 275 mg/kg, ip after 6 days; type: organism-based; set-up: dose 275 mg/kg, route intraperitoneal; settings: in vivo
[45] = Toxicity in Mus musculus ddY (mouse) assessed as mortality at 200 mg/kg, ip after 4 days; type: organism-based; set-up: dose 200 mg/kg, route intraperitoneal; settings: in vivo
[46] = Toxicity in Mus musculus ddY (mouse) assessed as mortality at 200 mg/kg, ip after 2 days; type: organism-based; set-up: dose 200 mg/kg, route intraperitoneal; settings: in vivo
[47] = Toxicity in Mus musculus ddY (mouse) assessed as mortality at 325 mg/kg, ip after 3 days; type: organism-based; set-up: dose 325 mg/kg, route intraperitoneal; settings: in vivo
[48] = system: Brassica rapa subsp. oleifera; experiment: Growth inhibition of Brassica rapa subsp. oleifera assessed as total chlorophyll level at 1 x 10^-4 M after 7 days; type: functional; set-up: scale not given: the % may be the effect or the level left
[49] = system: Brassica rapa subsp. oleifera; experiment: Growth inhibition of Brassica rapa subsp. oleifera assessed as total chlorophyll level at 3 x 10^-4 M after 7 days; type: functional; set-up: scale not given: the % may be the effect or the level left
[50] = system: Brassica rapa subsp. oleifera; experiment: Growth inhibition of Brassica rapa subsp. oleifera assessed as total chlorophyll level at 3 x 10^-5 M after 7 days; type: functional; set-up: scale not given: the % may be the effect or the level left
[51] = Toxicity in Mus musculus ddY (mouse) assessed as mortality at 300 mg/kg, ip after 6 days; type: organism-based; set-up: dose 300 mg/kg, route intraperitoneal; settings: in vivo
[52] = system: Brassica rapa subsp. oleifera; experiment: Growth inhibition of Brassica rapa subsp. oleifera assessed as root growth at 1 x 10^-4 M after 7 days; type: functional
[53] = Toxicity in ip dosed Mus musculus ddY (mouse) assessed as mortality after 1 to 7 days; type: organism-based; settings: in vivo
[54] = Toxicity in Mus musculus ddY (mouse) assessed as mortality at 225 mg/kg, ip after 1 day; type: organism-based; set-up: dose 225 mg/kg, route intraperitoneal; settings: in vivo
[55] = Toxicity in Mus musculus ddY (mouse) assessed as mortality at 225 mg/kg, ip after 4 days; type: organism-based; set-up: dose 225 mg/kg, route intraperitoneal; settings: in vivo
[56] = Toxicity in Mus musculus ddY (mouse) assessed as mortality at 225 mg/kg, ip after 3 days; type: organism-based; set-up: dose 225 mg/kg, route intraperitoneal; settings: in vivo
[57] = Toxicity in Mus musculus ddY (mouse) assessed as mortality at 200 mg/kg, ip after 5 days; type: organism-based; set-up: dose 200 mg/kg, route intraperitoneal; settings: in vivo
[58] = system: Brassica rapa subsp. oleifera; experiment: Growth inhibition of Brassica rapa subsp. oleifera assessed as root growth at 3 x 10^-5 M after 7 days; type: functional
[59] = Toxicity in Mus musculus ddY (mouse) assessed as mortality at 325 mg/kg, ip after 7 days; type: organism-based; set-up: dose 325 mg/kg, route intraperitoneal; settings: in vivo

SMILES: CN1C(=O)CSC1=S [3-METHYL-RHODANINE]
- mortality at 96 h [1]: 80%
- mortality at 120 h [2]: 80%
- mortality at 48 h [3]: 80%
- Activity [4]: 4.85%
- mortality at 96 h [5]: 80%
- mortality at 144 h [6]: 0%
- mortality at 120 h [7]: 40%
- Activity [8]: 18.62%
- mortality at 120 h [9]: 100%
- mortality at 72 h [10]: 40%
- mortality at 168 h [11]: 20%
- mortality at 168 h [12]: 80%
- mortality at 96 h [13]: 100%
- Root length [14]: 53.9 mm
- mortality at 24 h [15]: 0%
- mortality at 168 h [16]: 40%
- mortality at 24 h [17]: 40%
- Activity [18]: 15.61%
- mortality at 72 h [19]: 80%
- mortality at 96 h [20]: 40%
- mortality at 48 h [21]: 80%
- mortality at 24 h [22]: 60%
- Activity [23]: 4.44%
- mortality at 72 h [24]: 80%
- mortality at 168 h [25]: 0%
- mortality at 168 h [26]: 80%
- mortality at 72 h [27]: 0%
- mortality at 24 h [28]: 20%
- mortality at 48 h [29]: 20%
- Activity [30]: 3.53%
- mortality at 120 h [31]: 20%
- mortality at 48 h [32]: 20%
- Activity [33]: 15.09%
- mortality at 144 h [34]: 20%
- mortality at 144 h [35]: 40%
- mortality at 144 h [36]: 100%
- mortality at 24 h [37]: 20%
- Activity [38]: 37.5 mm
- mortality at 48 h [39]: 60%
- Activity [40]: 10.77%
- Activity [41]: 4.67%
- mortality at 120 h [42]: 80%
- Activity [43]: 14.2%
- mortality at 144 h [44]: 80%
- mortality at 96 h [45]: 0%
- mortality at 48 h [46]: 0%
- mortality at 72 h [47]: 100%
- Activity [48]: 20.44%
- Activity [49]: 14.29%
- Activity [50]: 19.75%
- mortality at 144 h [51]: 80%
- Activity [52]: 52.7 mm
- LD50 [53]: 255 mg/kg
- mortality at 24 h [54]: 20%
- mortality at 96 h [55]: 20%
- mortality at 72 h [56]: 20%
- mortality at 120 h [57]: 0%
- Root length [58]: 56.2 mm
- mortality at 168 h [59]: 100%
